The subject of one assay is EB + CT-DNA adduct. The experiment in a line: EB displacement (competitive fluorescence emission quenching). In kind it is binding. Conditions: EB 5 μM + CT-DNA 25 μM. The method, then:
The competitive emission quenching experiment was carried out using a well-known intercalating agent and fluorescent probe for DNA, ethidium bromide (EtBr).[83] The compound in varying concentrations (0–150) was added to the [EB (5 μM) + CT-DNA (25 μM)] adduct. The excitation wavelength was fixed to 510 nm, and the emission spectra were recorded (λem = 500–700 nm). The quenching efficiency of the compound was analyzed using the Stern–Volmer and Scatchard equations, and the Stern–Volmer (quenching) constant, Ksv, the bimolecular quenching rate constant, kq, binding constant, Kbin, and the number of binding sites per nucleotide, n, were calculated.[84]
Absorption spectral studies […]
sufficiently free of protein. The DNA concentration per nucleotide was determined by […]
sample solutions to eliminate the absorbance of CT-DNA. […]
mixture was allowed to incubate for 5 minutes before the absorption spectrum was recorded.
The intrinsic binding constant Kb of compound was calculated by using Wolfe-Shimmer […]
Fluorescence spectral studies
The fluorescence quenching experiments were performed for additional support for binding of […]
EB+CT-DNA solution. The fluorescence spectra of 200 μL/well solutions in a 96-well plate
were recorded with 510 nm excitation and the emission spectra of constant [EB+CT-DNA] with
varying the compound concentration were recorded (λ em =500–700). […]

Assay [1] relates to Caco-2 cells. The experiment in a line: MMP determination (TMRE, flow cytometry). Conditions: Caco-2, 48 h, 7.5, 15, 30 μM. The assay is classed as cell-based, human. The procedure:
Briefly, Caco-2 (5x10^5 per well) were seeded in 6-well plates for 24 h and either untreated or treated with a various concentrations of compound 3 (7.5, 15, 30 μM) for addional 48 h.
Following treatment, cells were harvested and were incubated with 50 nM BD PharmingenTM MitoStatus TMRE for 30 min at 37°C, 5% CO2, followed by resuspending twice with pre-warmed PBS (2000 rpm×3 min). Quantitative changes in mitochondrial membrane potential (MMP) at the early stage of cell apoptosis were measured using BD PharmingenTM MitoStatus TMRE (BD Biosciences, San Jose, CA, USA) and detected by flow cytometry (BD

The target in assay [2] is T1, BSA (bovine serum albumin) (Bos taurus, UniProt P02769).
T1 construct: purchased Merck/Sigma
The experiment in a line: BSA UV–vis absorption. In kind it is binding. The note with it: BSA 10 μM + compound 10 μM. The procedure: The BSA–compound interactions are studied by comparing the UV–vis spectra (200–400 nm) of BSA (10 μM) alone and a mixture of [BSA (10 μM) + compound 3 (10 μM)] at room temperature in 10 mM Tris-HCl buffer with a pH of 7.4.[85]

Assay [3] concerns Caco-2 cells. The experiment in a line: Annexin V/PI double-staining apoptosis assay (flow cytometry). The assay is classed as cell-based, human. The note with it: 48 h. The procedure:
calculated from graph. All assays were performed in three replicates per concentration level. 11
8. Annexin-V/PI Double-Staining Assay
Caco-2 (5x10^5 per well) were seeded in 6-well culture plates in medium and incubated for 24 h at 37°C. Then cells were either untreated or treated with the compound 3 (7.5, 15, 30 μM) for additional 48 h. The cells were harvested and resuspended in 400 μl of 1× binding buffer containing Annexin V-FITC (5 μl) and PI (5 μl), and cells were incubated for 15 min at RT (25°C) in the dark. The results were evaluated immediately through flow cytometry (BD Biosciences, San Jose, CA, USA) within 1 h using Annexin V-FITC staining kit (BD […]
On the technique in general: Flow cytometry measures light scatter and fluorescence of single cells or particles in a stream.

T1 sequence (P02769 25-607): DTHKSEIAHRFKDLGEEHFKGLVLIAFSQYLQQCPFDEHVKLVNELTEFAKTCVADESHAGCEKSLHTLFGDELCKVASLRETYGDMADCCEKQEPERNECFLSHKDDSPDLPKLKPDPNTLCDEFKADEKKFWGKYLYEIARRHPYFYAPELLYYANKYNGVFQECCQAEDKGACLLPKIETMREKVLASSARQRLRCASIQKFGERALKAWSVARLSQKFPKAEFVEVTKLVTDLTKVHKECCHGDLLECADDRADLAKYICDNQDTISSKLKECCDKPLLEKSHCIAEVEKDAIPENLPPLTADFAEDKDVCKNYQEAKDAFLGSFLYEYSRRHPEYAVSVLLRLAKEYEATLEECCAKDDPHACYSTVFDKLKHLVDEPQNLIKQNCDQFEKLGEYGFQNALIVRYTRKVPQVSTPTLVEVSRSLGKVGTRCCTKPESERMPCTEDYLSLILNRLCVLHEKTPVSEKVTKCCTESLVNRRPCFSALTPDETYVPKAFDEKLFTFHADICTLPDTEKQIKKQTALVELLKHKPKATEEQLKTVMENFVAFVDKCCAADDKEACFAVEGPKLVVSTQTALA

On to `O=Cc1ccc(OCc2cn(-c3ccc(Cl)c(Cl)c3)nn2)cc1O` [Compound 3, 4-((1-(3,4-Dichlorophenyl)-1H-1,2,3-triazol-4-yl)methoxy)-2-hydroxybenzaldehyde], for which the “Ksv (Stern–Volmer quenching constant)” value with EB + CT-DNA adduct (compound 0–150 μM, λex 510 nm, emission 602 nm) is 4.13 × 10^3 M^–1. In addition, the “Kbin (binding constant)” value in the assay on EB + CT-DNA adduct (Scatchard equation) is given as 3.45 × 10^4 M^–1. Further, the “loss of mitochondrial membrane potential (MMP)” value with Caco-2 cells [1] was “significant increase in MMP loss”. The “Δλ (blue shift of BSA absorption)” value in assay [2] is given as ~1 nm. In addition, the “percentage of apoptosis (early + late)” value with Caco-2 cells [3] (Caco-2, 7.5 μM) is on record as 46.09%; with Caco-2 cells [3] (Caco-2, 15 μM), 57.77%; with Caco-2 cells [3] (Caco-2, 30 μM), 70.25%.
